Source: paper PMC3764403 (Chemistry & Biology, 2008)
Where two headings read alike, the source gives them in different places. Numbered stars: 1 amine (or outer) side, 2 acyl side, 3 side chain; on linkers, the order of the positions; unused ones are H or OH. Square brackets hold non-standard residues; d marks the D form. Side chains are listed from the residue outwards. Peptide text beside a SMILES is read from it. NMeF = CN[C@@H](Cc1ccccc1)C(=O)O; CO = O=C([*:1])[*:2]

Legend:
[1] = molecular target: T1, chitinase B1 from Aspergillus fumigatus (AfChiB1) (Aspergillus fumigatus, UniProt Q873X9); assay: biochemical; settings: for AfChiB1 BEI (Binding Efficiency Index): BEI = −log(Ki)/M, M in kilodaltons, Ki derived from IC50 by Cheng and Prusoff equation
T1 construct: made in house; host or cells: Escherichia coli
Procedure: Chitinase activities for AfChiB1 ([Rao et al., 2005b]), hCHT ([Boot et al., 1998]), and total chitinase activity in lung homogenate samples from a mouse model of chronic asthma were determined as previously described ([Schüttelkopf et al., 2006]). […] AfChiB1 (2 nM) was incubated with 20 μM 4-methylumbelliferyl-β-D-N-N'-diacetylchitobiose (4MU-GlcNAc2; Sigma) and 0.25 mg/ml bovine serum albumin in 100 mM citric acid, 200 mM Na2HPO4 (pH 5.5). hCHT (0.3 nM) was incubated with 22 μM 4-methylumbelliferyl-β-D-N-N'-triacetylchitobiose (4MU-GlcNAc3; Sigma) and 0.25 mg/ml bovine serum albumin in 100 mM citric acid, 200 mM Na2HPO4 (pH 5.2). Lung homogenate (39 μg/ml) (obtained as described previously [[Schüttelkopf et al., 2006]]) was incubated with 20 μM 4MU-GlcNAc2 in 100 mM citric acid, 200 mM Na2HPO4 (pH 5.5). All reactions were run for 10 min at 37°C, and liberated 4-methylumbelliferone (4MU) was quantified after addition of 25 μl 3 M glycine-NaOH (pH 10.6) using an Flx 800 microtiterplate fluorescence reader (Bio-Tek instruments) with 40 nm slits and excitation and emission wavelengths of 360 nm and 460 nm, respectively.

[2] = molecular target: T1, chitinase B1 from Aspergillus fumigatus (AfChiB1); settings: Table 1, argifin value reported previously, ref Rao et al., 2005b, Dixon et al.; cited from earlier work
[3] = molecular target: chitinase B from Serratia marcescens; parameters: method as in Houston et al., 2002b; settings: ref Houston et al., 2002b; read-out: IC50 against chitinase B from Serratia marcescens; cited from earlier work

| Compound | AfChiB1 BEI (Binding Efficiency Index) [1] | IC50 ([1]; read-out: IC50 against AfChiB1) [µM] | IC50 [2] [nM] | IC50 [3] [µM] |
| --- | --- | --- | --- | --- |
| CNC(=N)NC(=O)NC [Dimethylguanylurea, dimethylguanylurea] | 27.7 | – | – | – |
| CNC(=O)NC(=N)NCCCC(NC(C)=O)C(=O)NC (stereo not shown) [Monopeptide] | 15.3 | 81 | – | – |
| CNC(=O)NC(=N)NCCC[C@H](NC(C)=O)C(=O)N(C)[C@@H](Cc1ccccc1)C(=O)N[C@@H](CC(=O)O)C(=O)O [Tripeptide] (Ac-Arg([CO-NHMe])-[NMeF]-Asp-OH) | 10.2 | – | – | – |
| argifin | 11.7 | – | 27 | 33 |
